The source of these data is ChEMBL document CHEMBL1133974, “Synthesis and in vitro evaluation of a series of diketopiperazine inhibitors of plasminogen activator inhibitor-1” (Bioorg Med Chem Lett, 2001).

Each structure is given as a SMILES string. pIC50: −log10 of the molar value.

T1 sequence (P05121 whole entry): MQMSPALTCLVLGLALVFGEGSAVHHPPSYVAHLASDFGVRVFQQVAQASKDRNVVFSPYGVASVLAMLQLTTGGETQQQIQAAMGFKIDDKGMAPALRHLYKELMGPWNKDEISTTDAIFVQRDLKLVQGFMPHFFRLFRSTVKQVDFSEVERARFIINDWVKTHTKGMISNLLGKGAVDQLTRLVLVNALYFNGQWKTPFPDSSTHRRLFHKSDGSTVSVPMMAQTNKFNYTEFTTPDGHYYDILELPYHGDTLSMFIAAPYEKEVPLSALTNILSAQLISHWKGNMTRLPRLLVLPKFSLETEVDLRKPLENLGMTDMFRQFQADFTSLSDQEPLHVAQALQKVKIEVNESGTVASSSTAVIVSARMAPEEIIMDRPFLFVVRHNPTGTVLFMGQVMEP

One assay has as its target T1, Plasminogen activator inhibitor 1 (Homo sapiens, UniProt P05121). Briefly: Inhibitory activity of compound against Plasminogen activator inhibitor-1.
For orientation: pIC50 means the negative decadic logarithm of the IC50, by convention in mol/L. Read a low pIC50 as a high IC50. For `O=C(O)c1ccc(/C=c2\[nH]c(=O)/c(=C/c3ccccc3)[nH]c2=O)cc1`, the pIC50 was less than 4.60.
The same measure, in the same setting: in the case of `O=C(O)CCCOc1ccc(/C=c2\[nH]c(=O)/c(=C/c3ccccc3)[nH]c2=O)cc1` it was 4.70.
Still for that read-out and setting: in the case of `CN(C)CCSc1ccc(/C=c2\[nH]c(=O)/c(=C/c3ccccc3Br)[nH]c2=O)s1` it was less than 4.60.
Still for that read-out and setting: the figure for `CCN(CC)CCSc1ccc(/C=c2\[nH]c(=O)/c(=C/c3ccccc3)[nH]c2=O)s1` is less than 4.60; for `Cc1ccc(/C=c2\[nH]c(=O)/c(=C/c3ccc(SCCN(C)C)s3)[nH]c2=O)cc1` it is 4.91; for `COC(=O)CCCCCCCOc1ccc(/C=c2\[nH]c(=O)/c(=C/c3ccc(NC(=O)c4cccs4)cc3)[nH]c2=O)cc1` it is 5.71.
`CN(C)CCSc1ccc(/C=c2\[nH]c(=O)/c(=C/c3ccc(C#N)cc3)[nH]c2=O)s1`: the negative-log IC50 (pIC50) is less than 4.60.
Molecule `CN(C)CCSc1ccc(/C=c2\[nH]c(=O)/c(=C/c3ccc(NC(=O)c4cccs4)cc3)[nH]c2=O)s1` gave a pIC50 of 5.51.
Still for that read-out and setting: in the case of `O=C(O)CCCCCCC(=O)Nc1ccc(/C=c2\[nH]c(=O)/c(=C/c3ccc(NC(=O)c4cccs4)cc3)[nH]c2=O)cc1` it was 6.28.
Same read-out and setting: in the case of `CN(C)CCSc1ccc(/C=c2\[nH]c(=O)/c(=C/c3ccc(NC(=O)c4ccccc4)cc3)[nH]c2=O)s1` it was 5.21; in that of `CN(C)CCSc1ccc(/C=c2\[nH]c(=O)/c(=C/c3ccccc3)[nH]c2=O)s1`, 5.46.
On the same count and under the same terms, in the case of `CN(C)CCOc1ccc(/C=c2\[nH]c(=O)/c(=C/c3ccccc3)[nH]c2=O)s1` it was less than 4.60; in that of `CN(C)CCSc1ccc(/C=c2\[nH]c(=O)/c(=C/c3ccc(N(C)C)cc3)[nH]c2=O)s1`, less than 4.60.
For the molecule `O=C(O)CCCCOc1ccc(/C=c2\[nH]c(=O)/c(=C/c3ccccc3)[nH]c2=O)cc1`, the pIC50 is 4.82.
The same measure, in the same setting: the figure for `CN(C)CCSc1ccc(/C=c2\[nH]c(=O)/c(=C/c3ccc(Br)cc3)[nH]c2=O)s1` is 4.88.
The same measure, in the same setting: in the case of `O=C(O)CCCCCCCCC(=O)Nc1ccc(/C=c2\[nH]c(=O)/c(=C/c3ccc(NC(=O)c4cccs4)cc3)[nH]c2=O)cc1` it was 6.41; in that of `COC(=O)c1ccc(/C=c2\[nH]c(=O)/c(=C/c3ccc(SCCN(C)C)s3)[nH]c2=O)cc1`, 4.75; in that of `CN(C)CC[S+]([O-])c1ccc(/C=c2\[nH]c(=O)/c(=C/c3ccccc3)[nH]c2=O)s1` (stereo unspecified), less than 4.60.
Still for that read-out and setting: in the case of `O=C(O)COc1ccc(/C=c2\[nH]c(=O)/c(=C/c3ccccc3)[nH]c2=O)cc1` it was less than 4.60; in that of `COC(=O)CCCCCCC(=O)Nc1ccc(/C=c2\[nH]c(=O)/c(=C/c3ccc(NC(=O)c4cccs4)cc3)[nH]c2=O)cc1`, 5.32; in that of `COc1ccc(/C=c2\[nH]c(=O)/c(=C/c3ccc(SCCN(C)C)s3)[nH]c2=O)cc1`, 4.96.
With `O=C(O)CCCCCCCOc1ccc(/C=c2\[nH]c(=O)/c(=C/c3ccc(NC(=O)c4cccs4)cc3)[nH]c2=O)cc1`, the pIC50 is 6.70.
Turning to `CN(C)CCSc1ccc(/C=c2\[nH]c(=O)/c(=C/c3cccc(Cl)c3)[nH]c2=O)s1`, the pIC50 was less than 4.60.
On the same count and under the same terms, in the case of `O=C(O)CCCCOc1ccc(/C=c2\[nH]c(=O)/c(=C/c3ccc(NC(=O)c4cccs4)cc3)[nH]c2=O)cc1` it was 5.76.

The next assay addresses T1, Plasminogen activator inhibitor 1. The assay can be described thus: Tissue plasminogen activator generation in plasmin was evaluated by measuring the ability to inhibit Plasminogen activator inhibitor-1 through complex assay.
For the molecule `O=C(O)CCCCCCCOc1ccc(/C=c2\[nH]c(=O)/c(=C/c3ccc(NC(=O)c4cccs4)cc3)[nH]c2=O)cc1`, the pIC50 was 6.29.

For a further assay the target is unchanged. Briefly: Tissue plasminogen activator generation in plasmin was evaluated by measuring the ability to inhibit Plasminogen activator inhibitor-1 through fibrin plate assay.
As for `O=C(O)CCCCCCCOc1ccc(/C=c2\[nH]c(=O)/c(=C/c3ccc(NC(=O)c4cccs4)cc3)[nH]c2=O)cc1`, the pIC50 was 6.59.
